Experimental data from US12391671B2, “Allosteric EGFR inhibitors and methods of use thereof” (Dana-Farber Cancer Institute, Inc., priority 2019, dated 2025).
Structures can show the parent of a compound that is named as a salt. Where two headings read alike, the source gives them in different places.

Columns and labels:
[1] = biological target: EGFR L858R/T790M (Homo sapiens (Human), UniProt P00533, L858R/T790M); assay: HTRF-based EGFR biochemical assay (L858R/T790M); conditions: 100 μM ATP, enzyme 0.02 nM
In short: (§1)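 Mutant EGFR (L858R 0.1 nM, L858R/T790M 0.02 nM) preincubated 30 min with compounds at room temperature in HEPES pH 7.0 buffer with Mg2+/Mn2+, then reacted 20 min with 1 μM biotinylated tyrosine kinase peptide and 100 μM ATP. Phosphorylation read by HTRF (Eu-cryptate anti-phosphotyrosine/streptavidin-XL665, 665/620 nm) after EDTA quench.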

[2] = test system: EGFR mutant L858R Ba/F3 cells; assay: Ba/F3 cell proliferation model (Cell Titer Glo), EGFR L858R; type: cell-based, murine; conditions: Mus musculus, BaF3; single agent, 72 hours; read-out: Cell IC50 BaF3 EGFR L858R
Description: Example 26: Ba/F3 Cell Proliferation Models
The EGFR mutant L858R and L858R/T790M Ba/F3 cells have been previously described (Zhou, W., et al. Nature 462, 2009, 1070-1074). All cell lines were maintained in RPM 1640 (Cellgro; Mediatech Inc., Herndon. CA) supplemented with 10% FBS, 100 units/mL penicillin, 100 units/mL streptomycin. The EGFR I941R mutation was introduced via site directed mutagenesis using the Quick Change Site-Directed Mutagenesis kit (Stratagene; La Jolla, CA) according to the manufacturer's instructions. All constructs were confirmed by DNA sequencing. The constructs were shuttled into the retroviral vector JP1540 using the Cre-recombination system (Agilent Technologies, Santa Clara, CA). Ba/F3 cells were then infected with retrovirus per standard protocols, as described previously (Zhou, et al, Nature 2009). Stable clones were obtained by selection in puromycin (2 μg/ml).
Growth and inhibition of growth was assessed by the Cell Titer Glo® assay (Promega, Madison, WI) and was performed according to the manufacturer's instructions. The Cell Titer Glo® assay is a luminescence-based method used to determine the number of viable cells based on quantitation of the ATP present, which is directly proportional to the amount of metabolically active cells present. Ba/F3 cells of different EGFR genotypes were exposed to compounds as a single agent or in combination with 1 μg/mL cetuximab for 72 hours and the number of cells used per experiment was determined empirically as has been previously established (Zhou, et al., Nature 2009). All experimental points were set up in triplicates in 384-well plates and all experiments were repeated at least three times. […] The curves were fitted using a non-linear regression model with a sigmoidal dose response.

[3] = biological target: EGFR L858R (Homo sapiens (Human), UniProt P00533, L858R); assay: HTRF-based EGFR biochemical assay (L858R); conditions: 100 μM ATP, enzyme 0.1 nM
In short: as §1

[4] = test system: EGFR mutant L858R/T790M Ba/F3 cells; assay: Ba/F3 cell proliferation model (Cell Titer Glo), EGFR L858R/T790M; type: cell-based, murine; conditions: 72 hours
In short: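 Retrovirally transduced Ba/F3 cells exposed 72 h to compound alone or with 1 μg/mL cetuximab, triplicate points, repeated at least three times. Viability by Cell Titer Glo luminescence (ATP); curves fitted by non-linear sigmoidal dose-response regression.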

[5] = test system: NSCLC resistant to gefitinib or erlotinib; conditions: patients with NSCLC that have developed resistance to gefitinib or erlotinib; cited from earlier work
[6] = Mus musculus, BaF3, single agent, read-out: Cell IC50 BaF3 EGFR L858R/T790M
[7] = in combination with 1 μg/mL cetuximab, read-out: Cell IC50 BaF3 EGFR L858R/T790M (+cetux.)

EGFR L858R/T790M, sequence (P00533 25-1210 T790M/L858R): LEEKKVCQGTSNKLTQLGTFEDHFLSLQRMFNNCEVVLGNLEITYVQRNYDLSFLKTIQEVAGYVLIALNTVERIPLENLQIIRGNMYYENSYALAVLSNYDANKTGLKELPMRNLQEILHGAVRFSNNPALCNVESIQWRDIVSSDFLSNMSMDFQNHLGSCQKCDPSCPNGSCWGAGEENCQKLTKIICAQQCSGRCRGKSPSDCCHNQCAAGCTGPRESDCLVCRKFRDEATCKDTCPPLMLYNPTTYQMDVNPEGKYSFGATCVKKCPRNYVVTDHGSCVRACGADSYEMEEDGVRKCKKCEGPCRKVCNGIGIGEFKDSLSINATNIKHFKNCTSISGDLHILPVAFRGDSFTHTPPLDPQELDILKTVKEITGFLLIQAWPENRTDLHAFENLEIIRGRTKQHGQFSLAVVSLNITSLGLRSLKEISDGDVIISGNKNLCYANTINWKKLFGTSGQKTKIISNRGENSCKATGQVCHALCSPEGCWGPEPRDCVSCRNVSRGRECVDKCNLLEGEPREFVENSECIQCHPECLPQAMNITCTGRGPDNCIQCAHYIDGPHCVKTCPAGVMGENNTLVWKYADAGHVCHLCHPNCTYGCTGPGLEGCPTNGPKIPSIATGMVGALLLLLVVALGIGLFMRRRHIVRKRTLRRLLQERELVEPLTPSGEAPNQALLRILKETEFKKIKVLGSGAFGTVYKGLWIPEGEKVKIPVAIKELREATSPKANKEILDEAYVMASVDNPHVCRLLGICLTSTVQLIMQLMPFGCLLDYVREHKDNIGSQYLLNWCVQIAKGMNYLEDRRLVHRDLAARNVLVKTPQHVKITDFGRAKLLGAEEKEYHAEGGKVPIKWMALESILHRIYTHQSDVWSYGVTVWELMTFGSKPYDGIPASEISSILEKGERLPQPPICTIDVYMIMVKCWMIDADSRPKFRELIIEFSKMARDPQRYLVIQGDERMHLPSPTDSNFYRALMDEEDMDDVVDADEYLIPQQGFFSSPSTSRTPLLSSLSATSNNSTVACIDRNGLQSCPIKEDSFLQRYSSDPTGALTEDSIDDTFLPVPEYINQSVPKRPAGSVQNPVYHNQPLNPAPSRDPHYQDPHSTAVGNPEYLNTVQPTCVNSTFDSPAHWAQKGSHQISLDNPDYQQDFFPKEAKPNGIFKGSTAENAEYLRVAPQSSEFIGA
EGFR L858R, sequence (P00533 25-1210 L858R): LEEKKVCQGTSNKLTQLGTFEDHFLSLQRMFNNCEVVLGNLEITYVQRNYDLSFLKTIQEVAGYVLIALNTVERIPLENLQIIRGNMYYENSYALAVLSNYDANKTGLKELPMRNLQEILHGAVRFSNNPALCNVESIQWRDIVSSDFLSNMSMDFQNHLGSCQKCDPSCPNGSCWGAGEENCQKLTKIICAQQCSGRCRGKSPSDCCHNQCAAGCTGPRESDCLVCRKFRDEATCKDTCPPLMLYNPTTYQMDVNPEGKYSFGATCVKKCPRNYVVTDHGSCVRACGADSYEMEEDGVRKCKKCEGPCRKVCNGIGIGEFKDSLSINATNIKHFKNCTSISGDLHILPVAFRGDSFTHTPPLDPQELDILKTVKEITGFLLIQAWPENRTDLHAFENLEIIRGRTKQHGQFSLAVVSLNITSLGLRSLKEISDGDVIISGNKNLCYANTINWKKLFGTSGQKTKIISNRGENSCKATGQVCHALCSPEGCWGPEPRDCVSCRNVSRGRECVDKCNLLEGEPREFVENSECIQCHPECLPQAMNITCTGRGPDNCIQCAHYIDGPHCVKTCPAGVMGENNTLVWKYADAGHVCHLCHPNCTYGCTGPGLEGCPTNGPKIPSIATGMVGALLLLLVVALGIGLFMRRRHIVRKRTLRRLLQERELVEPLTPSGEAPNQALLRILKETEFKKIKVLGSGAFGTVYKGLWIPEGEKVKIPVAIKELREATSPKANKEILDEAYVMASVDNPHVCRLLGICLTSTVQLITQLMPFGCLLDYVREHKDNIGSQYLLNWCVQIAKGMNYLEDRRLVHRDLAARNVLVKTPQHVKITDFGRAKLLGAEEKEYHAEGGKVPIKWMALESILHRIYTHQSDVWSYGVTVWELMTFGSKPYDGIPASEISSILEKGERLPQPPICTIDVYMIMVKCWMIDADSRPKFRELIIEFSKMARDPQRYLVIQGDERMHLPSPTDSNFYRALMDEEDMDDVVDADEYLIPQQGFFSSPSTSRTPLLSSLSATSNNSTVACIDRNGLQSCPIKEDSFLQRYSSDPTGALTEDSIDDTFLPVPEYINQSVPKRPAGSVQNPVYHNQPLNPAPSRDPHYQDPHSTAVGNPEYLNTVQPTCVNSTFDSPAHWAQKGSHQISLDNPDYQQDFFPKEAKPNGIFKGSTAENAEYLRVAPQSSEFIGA

IC50 [1] [nM]	IC50 [2] [nM]	IC50 [3] [nM]	IC50 [4, 6] [nM]	IC50 [4, 7] [nM]	SMILES	RR (response rate) [5]
1	110	2	120	20	CCc1c(-c2ccc(C3CCN(C)CC3)cc2)ccc2ncn(C(c3nc4ccccc4[nH]3)c3cc(F)ccc3O)c(=O)c12 (stereo not drawn) [Compound 074, 3-[1H-benzimidazol-2-yl-(5-fluoro-2-hydroxy-phenyl)methyl]-5-ethyl-6-[4-(1-methyl-4-piperidyl)phenyl]-quinazolin-4-one; dihydrochloride]	–
0.7	100	1	90	20	CN1CCC(c2ccc(-c3ccc4ncn(C(c5nc6ccccc6[nH]5)c5cc(F)ccc5O)c(=O)c4c3Cl)cc2)CC1 (stereo not drawn) [Compound 075, 3-[1H-benzimidazol-2-yl-(5-fluoro-2-hydroxy-phenyl)methyl]-5-chloro-6-[4-(1-methyl-4-piperidy)phenyl]-quinazolin-4-one; dihydrochloride]	–
2	90	2	140	30	CN1CCC(c2ccc(-c3ccc4ncn(C(c5nc6ccccc6[nH]5)c5cc(F)ccc5O)c(=O)c4c3C(F)(F)F)cc2)CC1 (stereo not drawn) [Compound 076, 3-[1H-benzimidazol-2-yl-(5-fluoro-2-hydroxy-phenyl)methyl]-6-[4-(1-methyl-4-piperidyl)phenyl]-5-(trifluoromethyl)quinazolin-4-one; dihydrochloride]	–
2	910	2	450	50	COc1c(-c2ccc(C3CCN(C)CC3)cc2)ccc2ncn(C(c3nc4ccccc4[nH]3)c3cc(F)ccc3O)c(=O)c12 (stereo not drawn) [Compound 077, 3-[1H-benzimidazol-2-yl-(5-fluoro-2-hydroxy-phenyl)methyl]-5-methoxy-6-[4-(1-methyl-4-piperidyl)phenyl]quinazolin-4-one;dihydrochloride]	–
1	690	3	310	20	CN1CCC(c2ccc(-c3ccc4c(c3)C(=S)N(C(c3nc5ccccc5[nH]3)c3cc(F)ccc3O)C4)cc2)CC1 (stereo not drawn) [Compound 078, 2-[1H-benzimidazol-2-yl-(5-fluoro-2-hydroxy-phenyl)methyl]-6-[4-(1-methyl-4-piperidyl)phenyl]isoindoline-1-thione;dihydrochloride]	–
0.6	500	3	210	10	CN1CCC(c2ccc(-c3ccc4c(c3F)C(=O)N(C(c3nc5ccccc5[nH]3)c3cc(F)ccc3O)C4)cc2F)CC1 (stereo not drawn) [Compound 080, 2-[1H-benzimidazol-2-yl-(5-fluoro-2-hydroxy-phenyl)methyl]-7-fluoro-6-[3-fluoro-4-(1-methyl-4-piperidyl)phenyl]isoindolin-1-one; dihydrochloride]	–
0.6	670	3	220	20	Cc1c(-c2ccc(C3CCN(C)CC3)cc2)ccc2c1C(=O)N(C(c1nc3ccccc3[nH]1)c1cc(F)ccc1O)C2 (stereo not drawn) [Compound 082, 2-[1H-benzimidazol-2-yl-(5-fluoro-2-hydroxy-phenyl)methyl]-7-methyl-6-[4-(1-methyl-4-piperidyl)phenyl]isoindolin-1-one; dihydrochloride]	–
28	780	13	1290	50	Cc1c[nH]c(C(c2cc(F)ccc2O)N2Cc3ccc(-c4ccc(C5CCN(C)CC5)cc4)cc3C2=O)n1 (stereo not drawn) [Compound 085, 2-[(5-Fluoro-2-hydroxy-phenyl)-(4-methyl-1H-imidazol-2-yl)methyl]-6-[4-(1-methyl-4-piperidyl)phenyl]isoindolin-1-one]	–
25	3640	> 100	3220	–	Cc1c[nH]c(C(c2cccc(F)c2)N2Cc3ccc(-c4ccc(C5CCN(C)CC5)cc4)cc3C2=O)n1 (stereo not drawn) [Compound 086, 2-[(3-fluorophenyl)-(4-methyl-1H-imidazol-2-yl)methyl]-6-[4-(1-methyl-4-piperidyl)phenyl]isoindolin-1-one]	–
25	1370	> 100	1320	–	Cc1nc(C(c2cc(F)ccc2O)N2Cc3ccc(-c4ccc(C5CCN(C)CC5)cc4)cc3C2=O)[nH]c1C (stereo not drawn) [Compound 087, 2-[(4,5-dimethyl-1H-imidazol-2-yl)-(5-fluoro-2-hydroxy-phenyl)methyl]-6-[4-(1-methyl-4-piperidyl)phenyl]isoindolin-1-one]	–
8	1430	11	860	20	CN1CCC(Oc2ccc(-c3ccc4c(c3)C(=O)N(C(c3nc5ccccc5[nH]3)c3cc(F)ccc3O)C4)cc2)CC1 (stereo not drawn) [Compound 090, 2-[1H-benzimidazol-2-yl-(5-fluoro-2-hydroxy-phenyl)methyl]-6-[4-[(1-methyl-4-piperidyl)oxy]phenyl]isoindolin-1-one]	–
6	1780	12	1050	120	O=C1c2cc(-c3ccc(OC4CNC4)cc3)ccc2CN1C(c1nc2ccccc2[nH]1)c1cc(F)ccc1O (stereo not drawn) [Compound 091, 6-[4-(azetidin-3-yloxy)phenyl]-2-[1H-benzimidazol-2-yl-(5-fluoro-2-hydroxy-phenyl)methyl]isoindolin-1-one; dihydrochloride]	–
1	820	4	100	10	CN1CCC(c2ccc(-c3ccc4cn(C(c5nc6ccccc6[nH]5)c5cc(F)ccc5O)nc4c3Cl)cc2)CC1 (stereo not drawn) [Compound 092, 2-[1H-benzimidazol-2-yl-[7-chloro-6-[4-(1-methyl-4-piperidyl)phenyl]-indazol-2-yl]methyl]-4-fluoro-phenol; dihydrochloride]	–
4	2000	14	530	–	CN1CCC(c2ccc(-c3ccc4cn(C(c5nc6ccccc6[nH]5)c5cc(F)ccc5O)nc4c3)cc2)CC1 (stereo not drawn) [Compound 100, 2-((1H-Benzo[d]imidazol-2-yl)(6-(4-(1-methylpiperidin-4-yl)phenyl)-2H-indazol-2-yl)methyl)-4-fluorophenol; trifluoroacetate]	–
6	4080	16	1310	–	CN1CCC(c2ccc(-c3cc4nn(C(c5nc6ccccc6[nH]5)c5cc(F)ccc5O)cc4cc3F)cc2)CC1 (stereo not drawn) [Compound 118, 2-((1H-Benzo[d]imidazol-2-yl)(5-fluoro-6-(4-(1-methylpiperidin-4-yl)phenyl)-2H-indazol-2-yl)methyl)-4-fluorophenol]	–
3	780	11	420	–	CN1CCC(c2ccc(-c3cc(F)c4cn(C(c5nc6ccccc6[nH]5)c5cc(F)ccc5O)nc4c3)cc2)CC1 (stereo not drawn) [Compound 119, 2-((1H-Benzo[d]imidazol-2-yl)(4-fluoro-6-(4-(1-methylpiperidin-4-yl)phenyl)-2H-indazol-2-yl)methyl)-4-fluorophenol; trifluoroacetate]	–
–	–	–	–	–	CN(C)C/C=C/C(=O)Nc1cc2c(Nc3ccc(F)c(Cl)c3)ncnc2cc1O[C@H]1CCOC1 [afatinib]	less than 10%

SMILES	IC50 [1] [nM]	IC50 [2] [nM]	IC50 [3] [nM]	IC50 [4, 6] [nM]	IC50 [4, 7] [nM]	RR (response rate) [5]
CN1CCC2(c3ccc(-c4ccc5c(c4)C(=O)N(C(c4nc6ccccc6[nH]4)c4cc(F)ccc4O)C5)cc3)CC2C1 (stereo not drawn) [Compound 079, 2-[1H-benzimidazol-2-yl-(5-fluoro-2-hydroxy-phenyl)methyl]-6-[4-(3-methyl-3-azabicyclo[4.1.0]heptan-6-yl)phenyl]isoindolin-1-one; dihydrochloride]	0.8	830	3	190	7	–
